# Reference: patent US20250375444A1, “METHOD OF TREATING ALZHEIMER’S DISEASE” (AmyriAD Pharma, Inc., priority 2021, published 2025)
# “Also recorded” adds a separate entry of the source. Where two headings read alike, the source gives them in different places.
# Tests used:
# [1] = tested on: AD subjects; experiment: 12-week open-label multicenter safety extension study (Study 401) of AD101
# Description: (§1) Subjects were titrated as follows: all subjects receive 60 mg once daily for the first month, 120 mg once daily for the second month and 180 mg once daily for the third month. Dose increases were dependent on the subject's tolerability of the previous dose.
# [2] = tested on: AD subjects; experiment: Safety extension study: subjects started on memantine hydrochloride; assay type: in vivo, human; settings: for Adverse Events during Memantine Co-administration: 401: 180 mg AD101
# Description: as §1
# [3] = tested on: nicotine-stimulated release of ACh
# [4] = tested on: extracellular ACh and dopamine concentrations
# [5] = tested on: subjects having probable AD; settings: cited from earlier work
# [6] = tested on: acetylcholine (ACh) levels; settings: rodent brains; cited from earlier work
# [7] = tested on: long-term potentiation (LTP); settings: cited from earlier work
# [8] = tested on: protein kinase C; settings: cited from earlier work
# [9] = tested on: Ca^2+/calmodulin-dependent protein kinase II (CaMK II); settings: cited from earlier work
# [10] = tested on: Aβ-like deposits; settings: in vivo; cited from earlier work
# [11] = tested on: amyloid precursor protein; settings: cited from earlier work
# [12] = tested on: pro-ADAM10 and/or BACE protein; settings: cited from earlier work
# [13] = tested on: ubiquitin-proteasome system pathway; settings: cited from earlier work
# [14] = Total, unique subjects (N = 293)
# [15] = Total, unique subjects (N = 293), denominator 293
# [16] = all doses, safety population 293 subjects
compound,measurement,setting,value
"O=C1N=C2C=CC=CN2C12Cc1ccccc1C2 [AD101, 1′,3′-dihydro-2H-spiro[imidazo[1,2α]pyridine-3,2′-inden]-2-one]",Discontinued Early,[1]; 60 mg QD (N = 293),16 n
same,Discontinued Early: Adverse Event,[1]; 60 mg QD (N = 293),8 n
same,Discontinued Early: Adverse Event,"[1]; 60 mg QD (N = 293), denominator 293",(2.7) %
same,Discontinued Early,[1]; 120 mg QD (N = 276),14 n
same,Discontinued Early: Adverse Event,[1]; 120 mg QD (N = 276),4 n
same,Discontinued Early: Adverse Event,"[1]; 120 mg QD (N = 276), denominator 293",(1.4) %
same,AE: Fatigue,[1]; 180 mg (N = 243),0 n
same,AE: Somnolence,[1]; 180 mg (N = 243),0 n
same,Discontinued Early,[1]; 180 mg QD (N = 243),6 n
same,Discontinued Early: Adverse Event,[1]; 180 mg QD (N = 243),5 n
same,Discontinued Early: Adverse Event,"[1]; 180 mg QD (N = 243), denominator 293",(1.7) %
same,Safety of 180 mg QD versus lower doses,[1]; 180 mg QD vs 60 mg QD and 120 mg QD,at least as safe as
same,New safety or tolerability issues,"[1]; 3-month open-label extension, 60 to 180 mg QD",No new safety or tolerability issues were identified
same,Pattern of nature or frequency of specific AE related to dose,"[1]; 60, 120, 180 mg",There does not appear to be any pattern related to AD101 dose
same,Relationship of SAEs to study drug (investigator),"[1]; SAE #00036: syncope, person on 180 mg",unrelated to study drug with the exception of SAE #00036
same,Discontinued Early,[1]; [14],36 n
same,Discontinued Early: Adverse Event,[1]; [14],17 n
same,Subjects with any AE,[1]; [14],51.2%
same,Discontinued Early,[1]; [15],(12.3) %
same,Discontinued Early: Adverse Event,[1]; [15],(5.8) %
same,"Serious Adverse Events (SAEs), number of events",[1]; [16],17
same,Subjects with Serious Adverse Events,[1]; [16],17 subjects
same,SAE Event (individual subject),[1]; dose at time of event 60 mg,Asthma; also recorded: Chest Pain; also recorded: Fractured Wrist; also recorded: Seizure; also recorded: Syncope (vasovagal); also recorded: Vestibular neuronitis; also recorded: GI bleed 2°to
same,SAE Event (individual subject),[1]; dose at time of event 120 mg,Lightheaded; also recorded: Fractured right; also recorded: Fx Left
same,SAE Event (individual subject),[1]; dose at time of event 180 mg,Syncope; also recorded: Fractured; also recorded: Chest Pain; also recorded: Pneumonia/Pulmonary
same,SAE Event (individual subject),[1]; dose at time of event N/A (10 days after completing 401),Multiple CVAs
same,Death,"[1]; multiple cerebral vascular accidents, deemed unrelated, 10 days post-study after 60, 120 and 180 mg for 4 weeks each",1
same,SAEs by dose at time of event,[1]; on 60 mg AD101,7
same,SAEs by dose at time of event,[1]; on 120 mg AD101,5
same,SAEs by dose at time of event,[1]; on 180 mg AD101,4
same,Laboratory or vitals sign abnormalities,"[2]; 5 subjects taking memantine hydrochloride, AD101 up to 180 mg",no clinically significant laboratory or vitals sign abnormalities were observed
same,Adverse Events during Memantine Co-administration,"[2]; Subject 03-2003, memantine 5 mg BID ongoing",No new AEs.
same,Adverse Events during Memantine Co-administration,"[2]; Subject 14-2108, memantine titrated 5 mg QD to 10 mg BID over 4 weeks",No new AEs.
same,Adverse Events during Memantine Co-administration,"[2]; Subject 14-2178, memantine titrated 5 mg QD to 10 mg BID over 4 weeks","Sinus headache ×1 day,; also recorded: Dizzy/lightheaded over 18; also recorded: Vomiting ×1 day, occurred 2"
same,Adverse Events during Memantine Co-administration,"[2]; Subject 18-2018, memantine 10 mg QD","Decreased appetite ×9 days; also recorded: UTI ×7 days began 30 days; also recorded: Confusion ×8 days, began 38; also recorded: Anxiety, ongoing at; also recorded: URI ×14 days began 30 days"
same,Adverse Events during Memantine Co-administration,"[2]; Subject 18-2122, memantine 10 mg QD",No new AEs.
same,Nicotine-stimulated release of ACh,[3],potentiates
same,Extracellular ACh concentrations,[4]; cerebral cortex,increases
same,Extracellular ACh concentrations,[4]; hippocampus,increases
same,Extracellular dopamine concentrations,[4]; hippocampus,increases
same,Dose response in primary outcome measures,"[5]; 10, 60 and 120 mg per day analyzed separately",no discernable dose response
same,AD101-related safety concerns,"[5]; up to 120 mg QD, 12 weeks, with 10 mg donepezil hydrochloride QD",No significant AD101-related safety concerns were identified
same,Acetylcholine (ACh) levels,[6],increase
same,Long-term potentiation (LTP),[7],enhancement
same,Activity of protein kinase C,[8],increased activity
same,Activity of CaMK II,[9],increased activity
same,Accumulation of Aβ-like deposits,[10],decreases accumulation
same,Cleavage of amyloid precursor protein,[11],induce cleavage
same,Level of pro-ADAM10 and/or BACE protein,[12],decrease the level
same,Activity of the ubiquitin-proteasome system pathway,[13],enhance the activity
